{"source": "patent US8063151B2", "about": "“Methods for manufacturing copolymers having 1-methyl-2-methoxyethyl moieties and use of same” (Abbott Laboratories, priority 2006, dated 2011)", "origin": "cited, not measured here", "conditions": "comparison with ethanol", "data": [{"smiles": "COCC(C)O", "note": "(stereo not shown) [1-methoxy-2-propanol]", "values": [{"measurement": "toxicity compared with other solvents", "value": "in a range more similar to ethanol"}]}]}
